Assay results reported in patent US9205050B2, “Antibiotic formulations, unit doses, kits and methods” (Bayer Intellectual Property GmbH, priority 2005, dated 2015).
Where a name gives a salt, the structure may show the parent alone. Read-outs that look alike come from different tables or passages of the source.

Tests used:
[1] = system: CD rats; assay: 14-consecutive day nose-only inhalation toxicity and recovery; assay type: in vivo, rat
Method: This Example involved evaluating the potential toxicity and recovery resulting from a 14-consecutive day, nose-only inhalation administration of vancomycin hydrochloride (vancomycin) to CD rats.
The solution was used to generate aerosolized vancomycin for all vancomycin exposure groups.
Nose-only exposures were conducted in a “flow-past” cylindrical inhalation chamber placed inside a steel-framed Plexiglas secondary containment box. The chamber contained 48 animal ports, each compatible with a single nose-only exposure tube, aerosol concentration sampling device (e.g., filter), or oxygen monitor.
The total air flow through the exposure system was balanced to achieve individual animal port flows of ˜500 mL/min (port flow approximated based on total chamber flow). Measured flows included sample flow rate, nebulizer flow rate, dilution flow rate (chamber make-up air), and chamber exhaust flow.
Vancomycin solution was aerosolized with two Aerotech II nebulizers operated at 20 psi driving pressure. The target aerosol Vancomycin concentration for all exposure levels was ˜1.0 mg/L.
Aerosolized vancomycin was administered to 3 groups of male and female CD rats (available from Charles River Laboratories, Kingston, N.Y.) for durations of 30 min (Low), 90 min (Mid), and 180 min (High). A control group was exposed for 180 min to aerosols generated from a normal saline solution. Groups of rats from the Control and High level 14-day exposures were also studied following a 14-day recovery period. Endpoints included clinical observations, body weights, clinical pathology (hematology, clinical chemistry), urinalyses, organ weights, and histopathology.

[2] = pH of Vancomycin HCl solutions, bulk solution and reconstituted lyophilizate; assay type: physicochemical
Method: […] On the final solution, pH and density were measured and appearance was evaluated. After lyophilization the following analyses were performed on the final product: • water content by Karl Fischer titration; • appearance of the cake, • reconstitution time, • appearance/clarity, • pH after reconstitution.

[3] = particle size distribution of nebulized aerosol, laser diffraction; assay type: physicochemical; conditions: solutions in WFI 60 to 140 mg/ml, fill 2 to 4 ml
Method: Droplet size distributions for aerosolized drug and placebo solutions were measured using the Sympatec HELOS laser diffraction spectrometer. In preparation for a run, the nebulizer was connected to the compressed air line, the flow turned on and the pressure regulator set to a driving pressure to generate a flow rate of 8 LPM through the nebulizer. The flow was then turned off by closing the flow shut-off valve. Next, the nebulizer was connected to a “T” piece with one port plugged, and the other port coupled to a mouthpiece. The nebulizer was then filled with drug solution, and mounted so that nebulizer mouthpiece was aligned parallel to the nozzle of the Rodos dry powder disperser apparatus already installed in the spectrometer. The laser diffraction system was setup to automatically trigger when it sensed the presence of the aerosol generated by the nebulizer. Measurements were initiated by opening the shut-off valve to pressurize the nebulizer and generate the aerosol. A total of 6 particle size distribution scans were taken for each nebulizer run, and then averaged to provide representative size distribution results.

[4] = system: beagle dogs; assay: 14-consecutive day face mask inhalation toxicity and recovery; assay type: in vivo, dog
Method: (§1) This Example involved evaluating the potential toxicity and recovery resulting from a 14-consecutive day, face mask inhalation administration of vancomycin hydrochloride to beagle dogs.
(§2) Within 2 hours prior to usage, a vancomycin nebulizer solution having a concentration of 120 mg/ml was formed by dissolving vancomycin hydrochloride (available from Alpharma, Copenhagen, Denmark) in sterile water for injection USP (available from B. Braun Medical Inc., Bethlehem, Pa.). The solution was used to generate aerosolized vancomycin for all vancomycin exposure groups.
(§3) The exposure system consisted of a single, cylindrical, plexiglass inhalation chamber (volume of ˜23.7 L, 14.61-cm radius, 35.56-cm height). The chamber was supplied with two Aerotech II nebulizers operated at ˜40 psi. Nebulized test article and nebulizer air supply was diluted with ˜10 L/min HEPA-filtered dilution air. The flow through the system was ˜36 L/min.
(§4) The aerosolized vancomycin was administered via a face mask to 3 groups of male and female beagle dogs for durations of 15 min (Low), 30 min (Mid), and 60 min (High). A control group was exposed for 60 min to aerosols generated from normal saline solution, i.e., 0.9% sodium chloride injection USP (available from B. Braun Medical Inc.).
(§5) Groups of dogs from the Control and High level 14-day exposures were also studied following a 14-day recovery period. Endpoints for all groups of dogs included physical examinations, clinical observations, body weights, opthalmology, cardiovascular EKG, clinical pathology (hematology, clinical chemistry), urinalyses, organ weights, histopathology, and toxicokinetics.

[5] = as above; assay type: in vivo, dog; conditions: both sexes, beagle, dog, in vivo, inhaled, high exposure level (60 min)
Method: as §1, §2, §3, §4, §5

[6] = density of Vancomycin HCl solutions; assay type: physicochemical
Method: On the final solution, pH and density were measured and appearance was evaluated. […]

[7] = solubility study of Vancomycin HCl in water (saturated solution, UV 280 nm); assay type: physicochemical; conditions: thermodynamic from solid, water for injection, stirred 48 h, filtered, read-out: maximum solubility in water
Method: A saturated solution of Vancomycin HCl in water for injection was prepared by adding under stirring the active agent to the solvent.
Suspension was stirred for 48 h in order to reach the equilibrium conditions for the dissolution.
Suspensions was filtered first through a paper filter and then through a 0.45 μm PVDF filter discarding the first drops of solution which could have been diluted because of the binding of the product to the membrane.
The filtrated solutions of Vancomycin HCl in water coming from the respective saturated solutions, was diluted to reach a final concentration which gave an Abs value at λ=280 nm included into the calibration curve.
Each diluted solution was analysed in triplicate with UV at λ=280 nm. For each solution the absorbances have been mediated and the final value has been substituted in the respective calibration curve equation to calculate the concentration.

[8] = osmolality of gentamicin sulfate solutions; assay type: physicochemical
Method: Solubility in water was determined via visual assessment. Osmolality and pH were also determined. […] The solubility was determined by visual assessment.

[9] = exposure aerosol from 120 mg/ml solution

**Q.** What does the source list for CN[C@H](CC(C)C)C(=O)N[C@H]1C(=O)N[C@@H](CC(N)=O)C(=O)N[C@H]2C(=O)N[C@H]3C(=O)N[C@H](C(=O)N[C@H](C(=O)O)c4cc(O)cc(O)c4-c4cc3ccc4O)[C@H](O)c3ccc(c(Cl)c3)Oc3cc2cc(c3O[C@@H]2O[C@H](CO)[C@@H](O)[C@H](O)[C@H]2O[C@H]2C[C@](C)(N)[C@H](O)[C@H](C)O2)Oc2ccc(cc2Cl)[C@H]1O [Vancomycin HCl, vancomycin hydrochloride]?
**A.** no observed effect level ([1]; 14-day inhalation): not established; tolerability of exposures ([1]; 30, 90, 180 min/day, 14 days, about 1.2 mg/L): well-tolerated; lung weight increase ([1]; High exposure level (180 min)): ~19 % of control; lung weight increase ([1]; Low exposure level (30 min)): approximately 8 % of control; increase in aspartate aminotransferase (AST) values ([1]; Mid and High exposure levels): 28-46%; neutrophils (hematology) ([1]; Mid and High exposure levels): statistically significant increase; lung weight increase ([1]; Mid exposure level (90 min)): ~20 % of control; histopathologic findings after recovery ([1]; after 14 days of recovery, High level): substantial diminution of these findings; body weight ([1]; all exposure levels): no vancomycin treatment related effects; clinical observations ([1]; all exposure levels): no vancomycin related effects; serum indicators of kidney function or urinalysis ([1]; all exposure levels): No vancomycin related changes; survival ([1]; all exposure levels, 14 days): All rats survived to scheduled necropsy; exposure related histopathologic findings ([1]; end of 14-day exposure): limited to the respiratory tract; mean particle size, mass median aerodynamic diameter [1, 9]: 2.0-2.6 μm; pH ([2]; 100.12 mg/mL in water): 3.8-4.1; pH ([2]; 110.16 mg/mL in water): 3.7-3.9; pH ([2]; 120.26 mg/mL in water): 3.6-3.8; pH ([2]; 130.5 mg/mL in water): 3.5-3.7; pH ([2]; 140.8 mg/mL in water): 3.4-3.5; volume weighted median size [3]: 2-3 μm; recovery of histopathological effects ([4]; 14-day recovery, High level): complete after 14 days; tolerability of exposures ([4]; 15, 30, 60 min/day, 14 days, about 1.4-1.5 mg/L): well-tolerated; physical examinations, clinical observations, opthalmology, ECG, hematology, clinical chemistry, urinalyses, gross necropsy, organ weights ([4]; all exposure levels): no vancomycin related effects; survival ([4]; all exposure levels, 14 days): All dogs survived to scheduled necropsy; effects of exposure in histopathology ([4]; end of 14-day exposure): limited to microscopic findings in the lung; mean particle size, mass median aerodynamic diameter [4, 9]: 1.9-2.6 μm; NOAEL at 14 days ([5]; read-out: no observed adverse effect level (NOAEL), deposited lung dose): 9 mg/kg; NOAEL at 14 days ([5]; read-out: no observed adverse effect level (NOAEL), inhaled dose): 45 mg/kg; Density ([6]; 100.12 mg/mL in water): 1.027 g/mL; Density ([6]; 110.16 mg/mL in water): 1.034 g/mL; Density ([6]; 120.26 mg/mL in water): 1.037 g/mL; Density ([6]; 130.5 mg/mL in water): 1.042 g/mL; Density ([6]; 140.8 mg/mL in water): 1.046 g/mL; solubility at 48 h [7]: 141 mg/mL

**Q.** Which Osmolality ([8]; 20 mg/ml active in 0.9% saline) does the source give for gentamicin sulfate here?
**A.** 318 mOsmol/kg

**Q.** What about the Osmolality ([8]; 20 mg/ml active in WFI) of the same compound?
**A.** 61 mOsmol/kg

**Q.** And the Osmolality ([8]; 40 mg/ml active in 0.9% saline)?
**A.** 353 mOsmol/kg

**Q.** And the Osmolality ([8]; 40 mg/ml active in WFI)?
**A.** 101 mOsmol/kg

**Q.** What about the Osmolality ([8]; 80 mg/ml active in 0.9% saline) of the same compound?
**A.** 445 mOsmol/kg

**Q.** And the Osmolality ([8]; 80 mg/ml active in WFI)?
**A.** 197 mOsmol/kg

**Q.** What about the Osmolality ([8]; 120 mg/ml active in WFI) of the same compound?
**A.** 275 mOsmol/kg

**Q.** What about the Osmolality ([8]; 200 mg/ml active in WFI) of the same compound?
**A.** 524 mOsmol/kg

**Q.** What about the Osmolality ([8]; 250 mg/ml active in WFI) of the same compound?
**A.** 1178 mOsmol/kg

**Q.** What about the Osmolality ([8]; 300 mg/ml active in WFI) of the same compound?
**A.** 2013 mOsmol/kg
